Experimental findings from patent US12194040B2, “FAK inhibitor and drug combination thereof” (HINOVA PHARMACEUTICALS INC., priority 2018, dated 2025) are described below.

The target of data set [1] is FAK enzyme (Homo sapiens, UniProt Q05397). Description: Inhibitory activity on FAK enzyme (HTRF, Sa-XL665 / TK antibody-Eu3+). Format: biochemical. For orientation: Time-resolved FRET reads energy transfer from a long-lived donor to a nearby acceptor.
Protocol: By referring to literature methods (Cancer Res. 2008, 68, 1935), the experiment of inhibitory activity on FAX enzyme was carried out. The details are as follows: the test compound was diluted to 1000 nM, and then subjected to 1:3 serial dilution with DMSO. 0.1 L of the solution was transferred into a 384-well plate, and 2 replicate wells were set up for each concentration. 5 µL of 2 FAK enzyme solution was added, then centrifuged at 1000 rpm for 1 min, and incubated at 25° C. for 15 min. 5 L of 2× substrate solution was added and incubate at 25° C. for 60 min. Then, 5 µL of Sa-XL665 solution and 5 μL of TK antibody-Eu3+ were added, and centrifuged at 1000 rpm for 1 min, then incubated at 25° C. for 60 min. Finally, Envision 2104 plate reader was used to read the fluorescence signal, and calculate the half inhibitory concentration IC50 of each compound on FAX enzyme.
In data set [2] the test system is MC38 tumor model. Description: Pharmacodynamic experiment on MC38 tumor animal model. Format: in vivo, C57BL/6 mice. Particulars: MC38, group 4: compound 44 50 mg/kg p.o. QD × 21; day 18. Here is the method: Cell culture: MC-38 cells are cultured in DMEM medium containing 10% fetal bovine serum (FBS). MC-38 cells in logarithmic growth phase were collected, and resuspended in HBSS to a concentration suitable for subcutaneous tumor inoculation in C57BL/6 mice.
Experimental animals: C57BL/6 mice, female, 6-8 weeks old, weighing about 18-20 g, 96 mice, purchased from Beijing Vital River Experimental Animal Technology Co., Ltd.
Tumor cell inoculation: Tumor cells in logarithmic growth phase were collected, and the cell concentration was adjusted to 5×10^6/mL with HBSS, then 0.1 mL was subcutaneously inoculated on the right side of each mouse near the back, that is, 5×10^5/mouse. Then, the tumor volume was observed and measured. When the average tumor volume of the mice grew to 50-100 mm^3, the tumor-bearing mice were randomly grouped according to the tumor volume and administered. The detailed information was shown in Table 3, and the day of grouping and administration was defined as day 0.
Calculation of tumor volume: The mice were sacrificed on the 18th day, the tumor was taken out, the tumor volume was measured, and the tumor inhibition rate of each group was calculated.

The subject of data set [3] is PAN-02 tumor model. Description: Pharmacodynamic experiment on PAN02 tumor animal model. In kind it is in vivo, C57BL/6 mice. Particulars: PAN-02, group 4: compound 44 25 mg/kg i.g. BID; 33 days. The text has this:
The PAN-02 cells in the logarithmic growth phase were collected, washed twice with PBS, and then resuspended in pre-cooled PBS for inoculation. The experimental animals were C57BL/6 mice, females, purchased from Beijing Vital River Experimental Animal Technology Co., Ltd. C57BL/6 mice were adapted to the laboratory environment for 3 days. PAN-02 cells were subcutaneously inoculated into the right ribs, and the amount of cells inoculated was 1×10^6/mouse. When the tumor grew to about 100 mm^3, they will be screened and randomly grouped. Each group included 8 mice. According to Table 4, mice were grouped and administrated as the dosing regimen. The day of grouping and administration was defined as day 1, and the administration period was 33 days.

Data set [4] is described as follows: Pharmacokinetic test in rats (PO, 10 mpk). In kind it is in vivo. Particulars: male SD rats, PO (gavage), plasma. Here is the method:
An appropriate amount of test drug (10 mg) was accurately weighed, and 0.25 ml of N,N-dimethylacetamide (DMA) was first added to dissolve it, then 0.5% sodium carboxymethyl cellulose (CMC-Na) was slowly added to 5 ml. The mixture was sonicated, vortexed, and mixed well. 0.2 ml of the final solution prepared above was taken out and stored at −20° C. for the concentration determination.
After fasted overnight (free drinking water), three healthy adult male SD rats (180-250 g, purchased from Chengdu Dossy Experimental Animal Co., Ltd.) were administered by gavaging with a volume of 5 ml/kg; Prior to administration, as well as 0.5 h, 1 h, 2 h, 4 h, 6 h, 8 h, 12 h, 24 h after administration, 0.1 ml of blood was collected from the retroorbital venous plexus, centrifuged at 4° C. for 5 min to separate the plasma, and stored at −20° C. for testing. Then, LC/MS/MS method was used to determine the concentration of the test compound in the plasma.

Sequence of FAK enzyme (Q05397 whole entry, species assumed): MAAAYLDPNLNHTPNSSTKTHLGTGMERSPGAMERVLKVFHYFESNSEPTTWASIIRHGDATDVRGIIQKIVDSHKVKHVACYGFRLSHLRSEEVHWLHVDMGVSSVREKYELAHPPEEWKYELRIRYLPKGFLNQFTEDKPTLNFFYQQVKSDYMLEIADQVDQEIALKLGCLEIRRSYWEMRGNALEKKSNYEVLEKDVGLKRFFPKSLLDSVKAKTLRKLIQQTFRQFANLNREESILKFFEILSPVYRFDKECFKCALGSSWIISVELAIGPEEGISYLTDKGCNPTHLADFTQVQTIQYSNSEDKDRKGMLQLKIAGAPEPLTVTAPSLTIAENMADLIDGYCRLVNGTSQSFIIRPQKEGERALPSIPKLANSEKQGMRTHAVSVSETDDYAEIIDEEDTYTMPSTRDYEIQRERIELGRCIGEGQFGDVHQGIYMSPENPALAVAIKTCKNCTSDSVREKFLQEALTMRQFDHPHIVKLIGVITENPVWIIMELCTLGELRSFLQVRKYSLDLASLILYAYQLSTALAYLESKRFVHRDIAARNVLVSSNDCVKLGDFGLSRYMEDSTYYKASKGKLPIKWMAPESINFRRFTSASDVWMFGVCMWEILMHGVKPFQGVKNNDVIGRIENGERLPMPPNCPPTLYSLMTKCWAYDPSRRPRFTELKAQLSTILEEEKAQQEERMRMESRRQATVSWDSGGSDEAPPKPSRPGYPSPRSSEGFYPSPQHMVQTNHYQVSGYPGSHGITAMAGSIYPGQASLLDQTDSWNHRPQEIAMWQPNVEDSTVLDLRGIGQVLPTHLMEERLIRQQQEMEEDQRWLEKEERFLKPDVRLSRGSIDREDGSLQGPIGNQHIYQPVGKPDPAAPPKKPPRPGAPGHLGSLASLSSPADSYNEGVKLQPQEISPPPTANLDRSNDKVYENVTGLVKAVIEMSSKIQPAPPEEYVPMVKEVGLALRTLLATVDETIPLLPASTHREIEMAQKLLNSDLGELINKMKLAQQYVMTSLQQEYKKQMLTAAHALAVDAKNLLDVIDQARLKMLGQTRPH

As a reminder, the IC50 is the concentration that gives 50% inhibition. A high value points to weaker potency. For the compound “N-deuteromethyl-4-((4-(((3-(N-deuteromethanesulfonamido) pyrazin-2-yl)deuteromethyl)amino)-5-(trifluoromethyl)pyrimidine-2-yl)amino)benzamide [Compound 45]”, the 50% inhibitory concentration (IC50) in data set [1] turned out to be 0.15 nM.

As to `[2H]C([2H])([2H])NC(=O)c1ccc(Nc2ncc(C(F)(F)F)c(NCc3nccnc3N(C([2H])([2H])[2H])S(C)(=O)=O)n2)cc1` [Compound 44, N-trideuteromethyl-4-((4-(((3-(N-trideuteromethylmethanesulfonamido)pyrazin-2-yl)methyl)amino)-5-(trifluoromethyl)pyrimidin-2-yl)amino)benzamide], the values for the Tumor inhibition rate in data set [2] and in data set [3] were 26.9% and 66%, respectively.

With `[2H]C([2H])([2H])NC(=O)c1ccc(Nc2ncc(C(F)(F)F)c(NCc3nccnc3N(C)S(C)(=O)=O)n2)cc1` [Compound 25, N-trideuteromethyl-4-((4-(((3-(N-methanesulfonamido)pyrazin-2-yl)methyl)amino)-5-(trifluoromethyl)pyrimidin-2-yl)amino)benzamide], the “half life t1/2” value in data set [4] came to 1.75 h.
